Data on seven compounds can be found in publication PMC4783973, “Synthetic Human TLR9-LRR11 Peptide Attenuates TLR9 Signaling by Binding to and thus Decreasing Internalization of CpG Oligodeoxynucleotides” (International Journal of Molecular Sciences, 2016).

Like-named read-outs stand apart in the source and are kept apart here.

Data set [1] relates to RAW264.7 cells. In words: TNF-α and IL-6 release from RAW264.7 cells, both cytokines stated together (ELISA). It counts as cell-based, mouse. As to conditions: for effect on TNF-α and IL-6 release (CpG ODN stimulation): CpG ODN 1.5 μM, 6 h, n = 4 (Figure 1). The protocol: Figure 1 Synthetic peptide (SP) decreased TNF-α and IL-6 release from RAW264.7 cells treated with CpG oligodeoxynucleotides (CpG ODN). RAW264.7 cells (4.0 × 10^5 cells) grown in 48-well plates were treated with 1.5 μM of ODN2006 or ODN107 preincubated with SP (0, 0.5, 1.5, or 4.5 μM) or unrelated peptide (URP) (4.5 μM) at 37 °C for 15 min. After incubation for 6 h, the supernatants were collected to detect TNF-α (A) and IL-6 (B) using enzyme-linked immunosorbent assay (ELISA) kits. Data from one of three independent experiments are shown (n = 4). “*”, p < 0.05 vs. ODN2006 or ODN107; “**”, p < 0.01 vs. ODN2006 or ODN107; “#”, p > 0.05 vs. ODN2006 or ODN107.
(§1) Experiments were performed as described in Figure 1. The concentrations of ODN2006, LPS, PAM3 and SP were 1.5 μM, 20 ng/mL, 5 μg/mL and 1.5 μM, respectively. Data from one of three independent experiments are shown (n = 3).
(§2) The RAW264.7 cell line was purchased from American Type Culture Collection (ATCC, Manassas, VA, USA). Cells were cultured in DMEM (high glucose) medium containing 10% FCS in a 37 °C humidified atmosphere with 5% CO2. Cells diluted with 0.4% trypan blue in phosphate-buffered saline (PBS, 0.1 mM, pH 7.2–7.4) were counted using a hemocytometer.
(§3) RAW264.7 cells (4.0 × 10^5 cells) were incubated in 48-well plates for 4 h, and supernatants were replaced with 0.4 mL of serum-free DMEM medium containing 1.5 μM of ODN2006 or ODN107, which had been preincubated with 0, 0.5, 1.5 or 4.5 μM of SP or 4.5 μM of URP at 37 °C for 15 min. After incubation for 6 h, the supernatants were collected to detect TNF-α and IL-6 concentrations using corresponding ELISA kits (eBioscience).

For a further data set, the system named is NF-κB p65 subunit. Description: NF-κB activity assay, p65 subunit in nuclear extract of RAW264.7 cells (Trans^AM ELISA). The data set is classed as cell-based. Conditions: CpG ODN 1.5 μM; 4 h; n = 3. The method, then: Figure 3 Synthetic peptide (SP) inhibited NF-κB activation induced by CpG oligodeoxynucleotides (CpG ODN) in RAW264.7 cells. RAW264.7 cells (5.0 × 10^6 cells) grown in six-well plates were treated with 1.5 μM of ODN2006 (A) or ODN107 (B) preincubated with SP (0, 0.5, 1.5, or 4.5 μM) or unrelated peptide (URP) (4.5 μM) at 37 °C for 15 min. After incubation for 4 h, the cells were collected to extract nuclear proteins. The p65 subunit was detected using enzyme-linked immunosorbent assay (ELISA) kits. Data from one of three independent experiments are shown (n = 3). “*”, p < 0.05 vs. ODN2006 or ODN107; “**”, p < 0.01 vs. ODN2006 or ODN107; “#”, p > 0.05 vs. ODN2006 or ODN107.
as §2
RAW264.7 cells (5.0 × 10^6 cells) were placed in six-well plates for 4 h, and the supernatants were then replaced with fresh medium containing 1.5 μM of ODN2006 or ODN107 that had been preincubated with SP (0, 0.5, 1.5, or 4.5 μM) or URP (4.5 μM) at 37 °C for 15 min. After incubation for 4 h, the cells were collected to extract nuclear proteins. Equal amounts of each sample were used to detect the DNA binding activity of the NF-κB p65 subunit using Trans^AM NF-κB ELISA kits (Active Motif), according to the manufacturer’s instructions.
(In general: ELISA stands for enzyme-linked immunosorbent assay.)

The test system of another data set is IκBα. Description: IκBα degradation and phosphorylation in RAW264.7 cells (western blotting). The data set is classed as cell-based. Conditions: ODN2006 1.5 μM; 4 h. The method, then: Figure 4 Synthetic peptide (SP) decreased the phosphorylation of IκBα and ERK1/2 in RAW264.7 cells treated with CpG oligodeoxynucleotides (CpG ODN). RAW264.7 cells (1.0 × 10^7 cells) grown in 10-cm dishes were treated with 1.5 μM of ODN2006 (A) or ODN107 (B) pre-incubated with SP (0, 0.5, 1.5, or 4.5 μM) at 37 °C for 15 min. After incubation for 4 h, cells were harvested to extract total protein; and the protein expressions of IκBα, phosphorylated (p)-IκBα, ERK1/2 and p-ERK1/2 were detected by western blotting. Data from one of three independent experiments are shown.
as §2
RAW264.7cells (1.0 × 10^7 cells) were incubated in dishes for 4 h, and the supernatants were replaced with fresh medium containing 1.5 μM of ODN2006 that had been preincubated with 0.5, 1.5 or 4.5 μM of SP for 15 min. Cells were sequentially cultured for another 4 h and then harvested to extract total proteins. Equal amounts of proteins from each treatment were separated by SDS-PAGE, and transferred onto 0.22 μm PVDF membranes (Bio-Rad). […]
On the technique in general: Immunoblotting shows a protein as a band on a membrane.

Data set [2] relates to RAW264.7 cells. Description: competitive internalization experiment with non-labeled ODN2006, confocal. The data set is classed as cell-based. Conditions: SP 1.5 μM, FAM-2006 1.5 μM, 30 min, n = 100. The method, then:
However, the results could not exclude the possibility that SP might act on FAM not ODN2006 itself. Therefore, a competitive internalization experiment using non-labeled ODN2006 was performed. Non-labeled ODN2006 and FAM-2006 have same ability to bind SP, but FAM had no such ability. If SP specifically acted on ODN2006, non-labeled ODN2006 might increase FAM-2006 internalization, and the intracellular fluorescence intensity would increase. […] Therefore, FAM-2006 could completely enter the cells, resulting in a subsequent increase in intracellular fluorescence.
Figure 7 Non-labeled ODN2006 restored internalization of FAM-labeled ODN2006 preincubated with synthetic peptide (SP) (Scale bar = 20 μm). […] The intracellular FAM-2006 (green) (A), mean fluorescence intensity (MFI) values (B) and the percentages of cells with FAM-2006 dots (green fluorescence) (C) were observed as described in Figure 5 (n = 100). […]
RAW264.7 cells (1.0 × 10^6 cells) were grown on 2-cm glass bottom dishes for 4 h, and supernatants were replaced with 1 mL of serum-free DMEM medium containing FAM-2006 (1.5 μM) that had been pre-incubated with SP (0, 0.5, 1.5 or 4.5 μM) at 37 °C for 15 min. […] The intracellular FAM-2006 (green fluorescence) was observed using a laser confocal microscope. Mean fluorescence intensity (MFI) values were calculated by the ZEN lite 2012 software.

Data set [3] relates to CpG ODN-induced cytokine release. Conditions: ref [19],[20]; cited from earlier work. The source says: CpG ODN-induced diseases, such as sepsis and some autoimmune disorders, are triggered by uncontrolled release of proinflammatory cytokines, e.g., TNF-α and IL-6 [18]. […] Herein, we firstly evaluated the inhibitory effect of SP on CpG ODN-induced cytokine release in the cellular tests. Tw ... || NF-κB is one of the most important inflammatory switches that comprise a series of transcription factors that regulate the expressions of various proinflammatory cytokines (IL-1, IL-6, IL-8 and TNF-α). NF-κB activation is depended on the degradation and phosphorylation of IκBα [12].

The conditions of data set [4]: cited from earlier work. The source says: (§4) CpG ODN must be internalized within cells before activating TLR9 signaling and inducing cytokines release. Thus, interfering with CpG ODN internalization probably leads to reduced activation of TLR9 signaling.
In another data set the test system is TLR signaling. As to conditions: inhibitors of clathrin-mediated phagocytosis; ref [24]; cited from earlier work.
Text: as §4

In the next data set the test system is PAM3/TLR1/TLR2. In words: PAM3CSK4 (TLR1/2)-induced TNF-α and IL-6 release from RAW264.7 cells (ELISA). The data set is classed as cell-based, mouse. Conditions: PAM3 5 μg/mL; n = 3 (Figure 2). The method, then:
as §1, §2, §3

In another data set the test system is LPS/TLR4. Description: LPS (TLR4)-induced TNF-α and IL-6 release from RAW264.7 cells (ELISA). As to conditions: LPS 20 ng/mL; n = 3 (Figure 2). The data set is classed as cell-based, mouse. The protocol: as §1, §2, §3

Regarding “5′-TCGTCGTTTTGTCGTTTTGTCGTT-3′ [ODN2006]”, the “effect on TNF-α and IL-6 release (CpG ODN stimulation)” value with RAW264.7 cells [1] was “significantly increased”. Besides, the “effect on TNF-α and IL-6 release (stimulation)” value (shortened to “effect … (stimulation)”) in the data set on RAW264.7 cells [1] (ODN2006 1.5 μM, n = 3 (Figure 2)) is “significantly increased”. Also, the “effect on activation of p65 (CpG ODN stimulation)” value in the data set with NF-κB p65 subunit is “significantly increased”. Moreover, in the data set with IκBα, the “levels of IκBα phosphorylation and degradation (CpG ODN stimulation)” value was “significantly increased”. For the same compound, in the data set with RAW264.7 cells [2] (non-labeled ODN2006 0, 0.5, 1.5 or 4.5 μM, dose-dependent), the “MFI and percentage of cells with green fluorescence (FAM-2006 + SP, competition)” value was “increased the MFI and the percentage of cells with green fluorescence”. In addition, the “restoration of FAM-2006 internalization (competition)” value in the data set on RAW264.7 cells [2] (non-labeled ODN2006 4.5 μM) is reported as “completely restore cell internalization of FAM-2006”.

For “5′-TGGCGCGGGCGG-3′ (DNA, all phosphorothioate, methylation of C not given here) [ODN107, a stimulatory CpG ODN developed in our laboratory]”, the “effect on TNF-α and IL-6 release (CpG ODN stimulation)” value in the data set with RAW264.7 cells [1] is reported as “significantly increased”. The “effect on activation of p65 (CpG ODN stimulation)” value in the data set on NF-κB p65 subunit is given as “significantly increased”.

`CCN(CC)CCCC(C)Nc1ccnc2cc(Cl)ccc12` (stereo not shown) [chloroquine]: in data set [3], the “effect on CpG ODN-induced cytokine release” value is recorded as “inhibitors of CpG ODN-induced cytokine release” and the “effect on proinflammatory cytokines” value is “inhibited proinflammatory cytokines”.

For `O=C(N/N=C/c1ccc(O)c(O)c1)c1cc2ccccc2cc1O` [dynasore], the cell toxicity entry in data set [4] (ref [24]) is recorded as “distinct cell toxicity”. In addition, the “effect on TLR signaling” value in the data set with TLR signaling was “significant inhibitory effects on TLR signaling”.

In the case of `CN(C)c1cccc2c(S(=O)(=O)NCCCCCN)cccc12` [monodansylcadaverine], the cell toxicity result in data set [4] is “distinct cell toxicity”. The “effect on TLR signaling” value in the data set on TLR signaling is reported as “significant inhibitory effects on TLR signaling”.

PAM3CSK4: the “effect … (stimulation)” value in the data set on PAM3/TLR1/TLR2 is recorded as “significantly increased”.

As for lipopolysaccharide [LPS], in the data set with LPS/TLR4, the “effect … (stimulation)” value is recorded as “significantly increased”.
